Experimental data reported in patent publication US20250123282A1, “METHODS FOR EVALUATION AND TREATMENT OF TYROSINE KINASE INHIBITOR (TKI)-RESISTANT ACUTE MYELOID LEUKEMIA” (LOMA LINDA UNIVERSITY, priority 2021, published 2025).

Experiments:
[1] = test system: MOLM-14 cells; assay: FACS of TKI-treated MOLM-14 cells in vitro (viable blasts, pBAD); format: cell-based, human; details: 3 days after one dose of 80 nM TKI; vs non-treatment controls
Experimental: The AML cells were analyzed at different time points after exposure to TKI (3 days, 10 days, 20 days, and 28 days). […] After 3 days, FACS of the surface markers and intracellular proteins, including CD14, CD33, CD44, and Ki67, were performed. FIGS. 1A-1E depicts therapeutic effect of different TKIs on MV4-11 and MOLM-14 cells in vitro (N=6). […] The circles indicate the group of viable blasts located in a FACS plot and green arrows indicate the dying tendency of blasts which will become positive for viability dye during the next few days. FIGS. 1C and 1D are graphical representations of the cumulative FACS percentage data of viable MV4-11 and MOLM-14 cells. *P<0.05. […]
(§1) Flow Cytometry (FACS). […] About 1×10^4˜10^6 cells in 100 μl FACS buffer (PBS containing 1% FBS and 0.05% sodium azide) were stained with various fluorescence-conjugated antibodies specific for the desired cell surface proteins at 4° C. for 30 min. The surface-stained cells were then fixed and permeabilized using the appropriate reagents (e.g. the BD Pharmingen Cytofix/Cytoperm buffer) and stained with different fluorescence-conjugated antibodies specific for the desired intracellular proteins at 4° C. for 2 hours in the permeabilizing buffer (e.g. the BD Perm/Wash buffer). […] Finally, the cells were washed twice in the permeabilizing buffer and twice in the FACS buffer before being analyzed on the BD FACSAria II. […]

[2] = test system: MV4-11; details: cited from earlier work
[3] = test system: MV4-11 cells; assay: Human cytokine proteome profile array of cell-free supernatants from GILT-treated MV4-11; format: cell-based; details: 80 nM GILT, MV4-11, vs non-treatment control
Experimental: To identify the protein(s) responsible for initiation of the survival mechanism and subsequent proliferation of AML blasts, human cytokine proteome profile arrays of cell-free supernatants from GILT-treated MV4-11's cultures were performed. […] Under the no treatment (No Tx) condition, MV4-11 releases numerous cytokines such as MIF in their supernatant; however, one dose of GILT-treatment eliminated release of a variety of cytokines such as osteopontin (arrows, FIG. 7A), a protein closely associated with adverse prognosis in AML patients. Next, bone marrow mononuclear cells (BMMNC) from AML patients were treated for 3 days ex vivo.
Proteomics and Blotting Analysis. Three days after the one dose treatment, the cell-free supernatants were collected for human cytokine profile assay. The Human XL Cytokine Array Kit (Catalog #ARY022B, R&D) was used according to the manufacturer's procedures and exposed to X-ray film (<10 minutes). Profiles of mean spot pixel density were created using a transmission-mode scanner and Image J analysis software.

[4] = test system: MV4-11 cells; assay: Coculture of GILT and exogenous MIF on MV4-11 (sequential or simultaneous); format: cell-based, human; details: MV4-11, sequential coculture 5 days, 80 nM GILT only
Experimental: To investigate whether MIF/CXCLs-CXCR2 pathways could be activated by TKI-treatment in viable blasts to support their survival and continuous proliferation, a serial coculture was conducted to examine whether the supplementation of exogenous MIF at early (simultaneous) or late stage (sequential) of TKI treatment could rescue the GIL-treated MV4-11 in vitro. CD44, a multifunctional cell surface adhesion receptor, was identified as a key regulator of quiescent AML leukemic stem cells (LSCs) which are highly microenvironment dependent. […] In the simultaneous coculture, another group of CD44High^+ cells was also found which included both Ki67^+ and Ki67^− subsets (FIG. 8F). This group of CD44High^+ cells could be visualized in the flow cytometry histogram (FIG. 8G). […] CD44high^+ stem-like cells have been previously found to be highly tumorigenic, treatment-resistant and responsible for metastatic progression in breast cancer.

[5] = test system: MV4-11; assay: GILT-based combinatory treatments for MV4-11 in vitro (synergy, relapse, FACS, imaging); format: cell-based, human
Description: FLT3, the most frequently mutated gene in AML patients, is often associated with poorer overall survival with an increased risk of relapse. However, the anti-leukemic effects of the latest FLT3 inhibitors as monotherapy or in combination with standard treatments are constrained by a short duration of response and a high rate of relapse. Accordingly, whether targeting the compensation pathways along with administration of FLT3 inhibitors, e.g., GILT, prevents relapse. A list of the in vitro trials of GILT in combination with inhibitors (commercially available) targeting new pathways on MV4-11 is provided in Table 1. […]
as §1

Row | Compound | viable MOLM-14 blasts (FACS) [1] | dose at which suppression of tumorigenic clustering and c-Kit starts [2] [nM] | MIF increase in the supernatant (mean pixel density) [3] [fold] | percentage of viable quiescent CD44+ cell population [4] [%] | population of viable blasts (FACS) ([5]; MV4-11, 3 days after combination treatment) [%] | viable Ki67+CD33+CD44+ cells (cell number count) ([5]; MV4-11, 7 days after combination treatment) [cells]
1 | CC(C)(C)c1cc(NC(=O)Nc2ccc(-c3cn4c(n3)sc3cc(OCCN5CCOCC5)ccc34)cc2)no1 [QUIZ, Quizartinib] | more effective | 80 | – | – | – | –
2 | CCc1nc(C(N)=O)c(Nc2ccc(N3CCC(N4CCN(C)CC4)CC3)c(OC)c2)nc1NC1CCOCC1 [GILT, Gilteritinib] | – | – | 2.6 | 17.7 | 26.9 | 180
